From patent publication US20160137639A1, “TRIAZOLE-ISOXAZOLE COMPOUND AND MEDICAL USE THEREOF” (JAPAN TOBACCO INC., priority 2012, published 2016)
Like-named read-outs stand apart in the source and are kept apart here.

Key:
human RORγ = molecular target: T1, human RORγ (Homo sapiens, UniProt P51449); experiment: Luciferase reporter gene assay of inhibitory effect against RORγ transcriptional activity (GAL4-hRORγ plasmid in CHO cells); format: cell-based
T1 construct: human, NM_005060.3 and from Ser253 to Lys518; expressed in transfected cells; host or cells: CHO cells (transient co-transfection with pG5-Luc reporter)
T1 sequence (P51449 253-518): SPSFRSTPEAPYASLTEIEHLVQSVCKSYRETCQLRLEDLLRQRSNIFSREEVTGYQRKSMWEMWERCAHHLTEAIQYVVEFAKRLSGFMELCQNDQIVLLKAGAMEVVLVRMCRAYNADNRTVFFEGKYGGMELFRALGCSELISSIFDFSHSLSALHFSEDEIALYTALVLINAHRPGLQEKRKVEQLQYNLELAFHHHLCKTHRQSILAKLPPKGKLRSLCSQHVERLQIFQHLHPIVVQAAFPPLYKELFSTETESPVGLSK

mouse RORγ = molecular target: T2, mouse RORγ (Mus musculus, UniProt P51450); experiment: Luciferase reporter gene assay of inhibitory effect against RORγ transcriptional activity (GAL4-mRORγ plasmid in CHO cells); format: cell-based
T2 construct: mouse, NM_011281.2 and from Ile251 to Lys516; expressed in transfected cells; host or cells: CHO cells (transient co-transfection with pG5-Luc reporter)
T2 sequence (P51450 251-516): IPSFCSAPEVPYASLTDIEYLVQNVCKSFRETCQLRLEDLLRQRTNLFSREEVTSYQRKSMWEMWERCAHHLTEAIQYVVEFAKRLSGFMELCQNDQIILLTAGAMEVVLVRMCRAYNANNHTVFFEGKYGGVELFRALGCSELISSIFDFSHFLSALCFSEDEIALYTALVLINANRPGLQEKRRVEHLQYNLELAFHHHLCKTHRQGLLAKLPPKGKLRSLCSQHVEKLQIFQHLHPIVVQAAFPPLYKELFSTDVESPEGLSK
Procedure, shortened: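 Readout is intracellular luciferase after 2-day compound exposure (8 concentrations, 0.1% DMSO) in CHO cells expressing GAL4 fused to mouse RORγ LBD residues Ile251–Lys516 plus pG5-Luc reporter. EC50 fitted from %-of-control; points showing resazurin-detected cytotoxicity dropped.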

SMILES | EC50 (human RORγ; read-out: LUC EC50 (μM) hRORg) [µM] | EC50 (mouse RORγ; read-out: LUC EC50 (μM) mRORg) [µM] | EC50 (human RORγ; read-out: LUC EC50 hRORg) [µM] | EC50 (mouse RORγ; read-out: LUC EC50 mRORg) [µM]
CC(=O)NCCCC(CC(=O)Nc1ccc(C)cc1C)c1nnc(CCCC(C)C)n1C1CC1 (racemic) [Example F-287] | > 3 | > 3 | – | –
CC(=O)N1C[C@H](C(=O)Nc2ccc(C)cc2C)[C@@H](c2nnc(CC3CC(C)(C)C3)n2C2CC2)C1 (racemic) [Example F-347] | < 3 | < 3 | – | –
COc1ccc(CNC(=O)CCc2nnc(CCC(C)C)n2C2CC2)c(C)c1 [Example F-108] | > 3 | > 3 | – | –
COc1cc(C)ccc1CNC(=O)CCc1nnc(CC[C@H]2CC[C@H](C(F)(F)F)CC2)n1C1CC1 [Example F-251] | < 3 | < 3 | – | –
Cc1ccc(NC(=O)CC(CO)c2nnc(CCCC(C)C)n2C2CC2)c(C)c1 (racemic) [Example F-271] | < 3 | < 3 | – | –
Cc1ccc(NC(=O)C[C@H](CCC(=O)O)c2noc(-c3ccc(CC(C)C)o3)c2C2CC2)c(Cl)c1 [Example E-28] | < 3 | < 3 | – | –
CC(=O)N1C[C@H](C(=O)Nc2ccc(C)cc2C)[C@@H](c2nnc(CCC3CCCCC3)n2C2CC2)C1 (racemic) [Example F-191] | < 3 | < 3 | – | –
Cc1c(Cl)cccc1NC(=O)CC(CCCO)c1nnc(CCCC(C)C)n1C1CC1 (racemic) [Example F-212] | < 3 | < 3 | – | –
CC(C)CCc1nnc(CCC(=O)Nc2cnc3ccccn23)n1C1CC1 [Example F-134] | > 3 | > 3 | – | –
CCC(C)CCc1nnc(CCC(=O)Nc2ccc(C)cc2C)n1C1CC1 (racemic) [Example F-236] | > 3 | < 3 | – | –
CC(=O)N1C[C@@H](C(=O)Nc2ccc(C)cc2C)[C@H](c2nnc(CCCC(C)C)n2C2CC2)C1 [Example F-316] | > 3 | > 3 | – | –
CCc1c(CCC(=O)Nc2cccc3ccccc23)noc1C1Cc2ccccc2C1 [Example F-14] | < 3 | < 3 | – | –
Cc1ccc(NC(=O)CC(CC(C)C)c2nnc(CCCC(C)(C)C)n2C2CC2)c(C)c1 (racemic) [Example F-438] | < 3 | < 3 | – | –
Cc1ccc(NC(=O)C[C@H](CCC(=O)O)c2noc3c2C(C)CCC3CCC(C)C)c(Cl)c1 (single isomer, unassigned) [Example F-693] | – | – | < 3 | < 3
Cc1ccc(NC(=O)C[C@H](CCC(=O)O)c2noc(-c3cc(CCC(C)(C)C)on3)c2C2CC2)c(F)c1 [Example E-31] | < 3 | < 3 | – | –
Cc1ccc(NC(=O)CCc2nnc([C@H]3C[C@H](CC4CCCC4)C3)n2C2CC2)c(C)c1 [Example F-423] | < 3 | < 3 | – | –
Cc1ccc(NC(=O)CC(c2nnc([C@H]3C[C@@H](CC(C)C)C3)n2C2CC2)C(F)(F)CO)c(C)c1 (mixture of isomers) [Example F-617] | – | – | < 3 | < 3
Cc1ccc(O)cc1NC(=O)CCc1nnc(CCC(C)C)n1C1CC1 [Example F-192] | > 3 | > 3 | – | –
Cc1ccc(NC(=O)CC(c2nnc([C@H]3C[C@@H](CC(C)C)C3)n2C2CC2)C2CN(C(=O)OCc3ccccc3)C2)c(C)c1 (mixture of isomers) [Example F-459] | < 3 | < 3 | – | –
CCN(CC)CC(=O)N1C[C@H](C(=O)Nc2ccc(C)cc2C)[C@@H](c2nnc([C@H]3C[C@@H](CC(C)(C)C)C3)n2C2CC2)C1 [Example F-650] | – | – | < 3 | < 3
COc1cc(C)c(C)cc1CNC(=O)CCc1nnc(CCC(C)C)n1C1CC1 [Example F-205] | > 3 | > 3 | – | –
Cc1ccc(NC(=O)CCc2nnc(CCC(C)C)n2C2CC2)cc1 [Example F-66] | > 3 | > 3 | – | –
Cc1c(Cl)cccc1NC(=O)CCc1nnc(C2CN(C(=O)OC(C)(C)C)C2)n1C1CC1 [Example F-234] | > 3 | < 3 | – | –
CC(=O)N1C[C@H](C(=O)Nc2ccc(C)cc2C)[C@@H](c2nnc(C(O)CCC(C)(C)C)n2C2CC2)C1 (single isomer, unassigned) [Example F-348] | > 3 | > 3 | – | –
